Measured values: patent publication US20040018528A1, “Novel biomarkers of tyrosine kinase inhibitor exposure and activity in mammals” (Sugen, Inc., priority 2002, published 2004)
Values joined by “and” are separate entries in the source; they are usually repeats but may differ in a detail not shown here. Equal values may be shown once. “Also recorded” adds a separate entry of the source.

Legend:
VEGF/PLGF heterodimers = assay: Hybrid ELISA for VEGF/PLGF heterodimers in patient plasma; assay type: in vivo, human; conditions: Trial C
Text: Heterodimers of VEGF and PLGF have been reported in the scientific literature. To measure heterodimers, a hybrid ELISA assay was used, combining reagents from both the R&D Systems VEGF and PLGF ELISA kits (where VEGF antibodies are used in capture step and PLGF antibodies are used in detection step).

MIG = MIG plasma ELISA, Compound 1 Phase I trials; assay type: in vivo, human; conditions: individual patients; in pg/mL (unit assumed)
Protocol: (§1) In Trials A and B, patients received Compound 1.
(§2) Data analysis was performed for each marker.

IP-10 = IP-10 plasma ELISA, Compound 1 Phase I trials; assay type: in vivo, human
Protocol: as §1, §2

I-TAC = I-TAC plasma ELISA, Compound 1 Phase I trials; assay type: in vivo, human
Protocol: as §1, §2

42 human cytokines = assay: Antibody membrane array (RayBio Human Cytokine Array III) screen of patient plasma; assay type: in vivo; conditions: plasma of one Trial B patient, confirmed by MIG ELISA
Protocol: All of the ELISA-based screening of candidate proteins were performed with commercially available ELISA kits; the kits for the biomarkers described in this report are all available from R&D Systems (Minneapolis, Minn.). A commercially available membrane array containing antibodies for the detection of 42 human cytokines was also used in screening of a patient's plasma samples before and after treatment. The antibody array used in cytokine screening (RayBio Human Cytokine Array III) was from RayBiotech (Norcross, Ga.).

HUVECs = assay: 2D gel analysis of conditioned media of VEGF-stimulated HUVECs; assay type: cell-based, human; conditions: HUVEC conditioned media; VEGF and compound 1 (1 uM) at 24 h; Run #1, Run #2
Protocol: Thawed conditioned media samples were precipitated with three volumes of acetone for 2 hours at −20° C., then centrifuged at 13000 RPM for 15 minutes. […] Protein was quantitated with Bio-Rad Protein Assay (cat#500-0006) using the microassay for cuvettes protocol.
Samples were diluted to 0.3 μg/μl with IEF Buffer containing 1% IPG Buffer pH 3-10 (Amersham). Eighteen centimeter IPG strips pH 3-10 (Amersham) were rehydrated with 120 μg sample (400 μL) under Drystrip Cover Fluid (Amersham) on the IPGphor (Amersham) at 20° C. for 18 hours. Strips were focused with the following program: 200 volts for 1 hour, ramped from 200 volts to 1000 volts over two hours, held at 1000 volts for 1 hour, ramped from 1000 volts to 8000 volts over 6 hours, then held at 8000 volts for 10 hours. […] Gels were over-layed with water-saturated butanol (Fisher), and left to polymerize at room temperature overnight.
Focused strips were equilibrated for ten minutes with gentle shaking in 10 milliliters Equilibration Buffer: 6 M Urea (Fisher), 50 mM tris-HCl pH 8.8 (Fisher), 30% glycerol (Fisher), 2% SDS (Fisher) with 1% dithiothreitol followed by ten minutes in Equilibration Buffer with 4% iodoacetamide.
The equilibrated strips were loaded onto the gel surfaces and sealed with hot agarose overlay solution containing 0.5% agarose in 50 mM tris-HCl pH 6.8, 2% SDS. […]

HUVEC = assay: pro-MMP1 ELISA of HUVEC conditioned media; assay type: cell-based, human; conditions: for Average pro-MMP1: HUVEC conditioned media
Protocol: Cells were propagated at 37° C. in a humidifed atmosphere of 5% CO2 using standard cell culture techniques. Cells were plated in 10-cm tissue culture plates at 8.5×10^5 cells/ml. After 6 hours the cells were quiesced by serum starvation overnight in starvation medium (EBM containing 0.5% FBS). […] Conditioned media was stored at −70° C. until subsequent analysis.
Reagents for human pro-Matrix Metalloproteinase 1 (pro-MMP-1) ELISA kits were obtained from R&D Systems, Inc. (Minneapolis, Minn.; catalog #DMP100). ELISAs were performed on conditioned media samples according to the manufacturers' instructions. The optical density of each well was determined using a universal microplate spectrophotometer (μQuant) from Bio-Tek Instruments, Inc. (Winooski, Vt.). KC-4 software from Bio-Tek Instruments, Inc. was used to extrapolate cytokine concentrations from the standard curves.

pro-MMP1 = pro-MMP1 levels in plasma of Study B patients; assay type: in vivo, human; conditions: Study B patients after receiving compound
FLT3 ligand (FL) = assay: FLT3 ligand plasma ELISA; assay type: in vivo, human
Protocol: Reagents for FLT3 ligand (FL) and IL-6 ELISA kits were obtained from R&D Systems, Inc. (Minneapolis, Minn.; catalog #s DFK00, Q6000). […] ELISAs were performed on patient plasma according to the manufacturers' instructions. The FL and CRP kits relied on a colorimetric readout; the optical density of each well was determined using a microplate spectrophotometer and data was analyzed using KC-4 software from Bio-Tek Instruments, Inc. The IL-6 kit was a chemiluminescent sandwich ELISA; luminescence values were determined on a microplate luminometer. SOFTmaxPRO software was used to extrapolate cytokine concentrations from the standard curves.

IL-6 = IL-6 plasma ELISA; assay type: in vivo, human; conditions: patients, FIG. 26
Protocol: (§3) Reagents for FLT3 ligand (FL) and IL-6 ELISA kits were obtained from R&D Systems, Inc. (Minneapolis, Minn.; catalog #s DFK00, Q6000). C-reactive protein (CRP) (accession ID AAA 52075) ELISA kits were obtained from KMI Diagnostics (Minneapolis, Minn.; catalog #EU59131). ELISAs were performed on patient plasma according to the manufacturers' instructions. The FL and CRP kits relied on a colorimetric readout; the optical density of each well was determined using a microplate spectrophotometer and data was analyzed using KC-4 software from Bio-Tek Instruments, Inc. The IL-6 kit was a chemiluminescent sandwich ELISA; luminescence values were determined on a microplate luminometer. SOFTmaxPRO software was used to extrapolate cytokine concentrations from the standard curves.

C-reactive protein (CRP) = assay: C-reactive protein plasma ELISA; assay type: in vivo, human; conditions: patients, FIG. 27
Protocol: as §3

[1] = test system: OB-cadherin 1 (cadherin 11); assay: Immunohistochemistry of OB-cadherin 1 in Colo205 xenograft tumors; assay type: in vivo, mice; conditions: 24 or 48 hours exposure, vs vehicle treated, IHC
Text: Colo205 human colon xenograft tumors were isolated and fixed in Streck Tissue Fixative (Streck Laboratories, Inc., La Vista, […].). Samples used in immunohistochemistry were sent out to BioPathology Sciences Medical Corporation (South San Francisco, Calif.) for paraffin embedding and sectioning.
A rabbit polyclonal antibody recognizing the cytoplasmic tail region of OB-cadherin 1 (cadherin 11) was purchased from Zymed Laboratories, Inc. (Zymed reagent #71-7600; South San Francisco, Calif.).
Sections (4-5 μm) stained using an automated immunohistochemistry system (Benchmark System, Ventana Medical Systems, Inc., Tucson, Ariz.). In brief, slides were deparaffinized using heat at 75° C. and Ventana's EZ Prep product (Ventana reagent #950-102). Antigen retrieval was performed by incubating the slides for 30 min with Ventana's CC2 product (Ventana reagent #950-123), a citrate-based solution with pH 6.0. Primary antibody (5 μg/ml) was incubated for 24 min at room temperature, followed by a secondary detection system, using biotinylated secondary antibody (Vector anti-rabbit secondary, BA-1000, at 2.5 μg/ml; Vector Laboratories, Burlingame, Calif.) with incubation time of 8 min. […] All samples analyzed for OB-cadherin 1 expression were also stained with the omission of primary antibody as a negative control.

[2] = patients checked for both proteins

## CCN(CC)CCNC(=O)c1c(C)[nH]c(C=C2C(=O)Nc3ccc(F)cc32)c1C [Compound 1, 5-(5-Fluoro-2-oxo-1,2-dihydro-indol-3-ylidenemethyl)-2,4-dimethyl-1H-pyrrole-3-carboxylic acid (2-diethylamino-ethyl)-amide]
VEGF/PLGF heterodimers
  patients tested with increase in plasma levels of VEGF/PLGF heterodimer: 3 of 3
MIG
  MIG plasma level, end C1 dosing: 138.56 and 739.71
IP-10; individual patients, >500 = above highest standard
  IP-10 plasma level, end C1 dosing: >500
IP-10; [2]
  patients with MIG and IP-10 induced in tandem: 6 of 6
I-TAC; individual patients, in pg/mL (unit assumed)
  I-TAC plasma level, end C1 dosing: >4000.0 and 212.26
I-TAC; [2]
  patients with MIG and I-TAC induced in tandem: 5 of 5
42 human cytokines
  level of MIG after treatment vs baseline: significantly higher
HUVECs
  Spot #1202 (pro-MMP-1) quantification, 2D gel: 270 and 484.7
HUVEC; 10 nM pre-treatment, 10 min post-VEGF
  Average pro-MMP1: 5.41 ng/mL
HUVEC; 10 nM pre-treatment, 8 hr post-VEGF
  Average pro-MMP1: 14.93 ng/mL
HUVEC; 10 nM pre-treatment, 24 hr post-VEGF
  Average pro-MMP1: 70.21 ng/mL
HUVEC; 10 nM pre-treatment, 48 hr post-VEGF
  Average pro-MMP1: 135.35 ng/mL
HUVEC; 100 nM pre-treatment, 10 min post-VEGF
  Average pro-MMP1: 5.78 ng/mL
HUVEC; 100 nM pre-treatment, 8 hr post-VEGF
  Average pro-MMP1: 12.75 ng/mL
HUVEC; 100 nM pre-treatment, 24 hr post-VEGF
  Average pro-MMP1: 50.26 ng/mL
HUVEC; 100 nM pre-treatment, 48 hr post-VEGF
  Average pro-MMP1: 128.75 ng/mL
HUVEC; 1 uM pre-treatment, 10 min post-VEGF
  Average pro-MMP1: 5.04 ng/mL
HUVEC; 1 uM pre-treatment, 8 hr post-VEGF
  Average pro-MMP1: 14.48 ng/mL
HUVEC; 1 uM pre-treatment, 24 hr post-VEGF
  Average pro-MMP1: 50.42 ng/mL
HUVEC; 1 uM pre-treatment, 48 hr post-VEGF
  Average pro-MMP1: 103.09 ng/mL
HUVEC; VEGF-treated HUVEC, pre-incubation at 10 nM, 100 nM or 1 uM
  levels of pro-MMP1 in HUVEC conditioned media: decreased
pro-MMP1
  pro-MMP1 levels in plasma of patients: increased
FLT3 ligand (FL); 18 patients enrolled in Trial B, day 1 to day 28
  patients exhibiting an increase in FLT3 ligand (FL) concentration: 100%
FLT3 ligand (FL); expanded set of patients, FIG. 25
  FLT3 ligand (FL) plasma level during treatment: induced; also recorded: Dramatic induction
IL-6
  interleukin-6 (IL-6) plasma level during treatment: induced
C-reactive protein (CRP)
  C-reactive protein (CRP) plasma level during treatment: induced
[1]
  protein expression of OB-cadherin 1 (cadherin 11): up-regulated; also recorded: up-regulation
